Measured values reported in US20240165144A1, “COMPOSITIONS AND METHODS FOR MODULATING INNATE IMMUNE SIGNALING PATHWAYS” (Dana-Farber Cancer Institute, Inc., priority 2019, published 2024).

Test system: cGAS-STING signaling
Experiment: interferon reporter assay with transfected polar cell extracts
Assay type: cell-based
Settings: iterative HPLC purification on 3 columns; single peak at retention time 24.5 minutes; FIG. 3
Text: FIG. 1A-FIG. 1B—FIG. 1A cGAS is an innate immune signaling enzyme that generates cyclic GMP-AMP in response to cytosolic DNA, image adapted from (7); FIG. 1B.
Applicants then transfected these extracts into the assay that was used to measure the effects of MB21D2 expression on interferon signaling (FIG. 1B workflow at top).

Structure (SMILES): Nc1ncnc2c1ncn2[C@@H]1O[C@H](CO)[C@@H](O)[C@H]1OP(=O)([O-])OP(=O)([O-])OP(=O)([O-])[O-].[Na+].[Na+].[Na+].[Na+] [2′-ATP, Adenosine 2′-Triphosphate, Sodium Salt]
- anti-STING activity of HPLC-purified fraction: anti-STING activity was localized to a single peak
